This passage reports Ki results from patent publication US20110086834A1, “ALKYNYL ALCOHOLS AS KINASE INHIBITORS” (AMGEN INC., priority 2008, published 2011).

Structures are written as SMILES.

The target of the assay is T1, NIK (Homo sapiens, UniProt Q99558).
T1 construct: Both assays utilize a truncated form of NIK containing only the catalytic domain; made in house; host or cells: baculovirus expression system (insect cells implied)
T1 sequence (Q99558 400-655 limits assumed): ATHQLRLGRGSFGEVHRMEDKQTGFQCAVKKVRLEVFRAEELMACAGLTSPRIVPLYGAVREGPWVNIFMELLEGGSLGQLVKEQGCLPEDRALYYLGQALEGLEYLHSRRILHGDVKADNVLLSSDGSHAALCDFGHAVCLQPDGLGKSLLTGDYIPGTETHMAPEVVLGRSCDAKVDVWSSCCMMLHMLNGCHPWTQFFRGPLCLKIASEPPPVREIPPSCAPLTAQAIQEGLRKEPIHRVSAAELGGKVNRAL
The assay is described as follows: homogenous time resolved fluorescence (HTRF) assay for NIK Ki measurement. The conditions noted are these: truncated NIK (catalytic domain only), autophosphorylation; 10 nM enzyme; 20, 100, 200 or 500 μM ATP; room temperature, 2 hours; read-out: Ki activity in the homogenous time resolved fluorescence (HTRF) assay for NIK. It counts as biochemical.
As a reminder, the Ki is the equilibrium dissociation constant of an inhibitor or competing ligand from its target. Consider `COCCNC(=O)c1[nH]c2ccc(C#CC(C)(O)c3nccs3)cc2c1-c1ccncn1` (centres unmarked) [Example 89, 5-(3-hydroxy-3-(thiazol-2-yl)but-1-ynyl)-N-(2-methoxyethyl)-3-(pyrimidin-4-yl)-1H-indole-2-carboxamide], for which the Ki was less than 1000 nM. The same measure for `CCC(C)(O)C#Cc1ccc2c(c1)N(c1ccnc(N)n1)CC2` (centres unmarked) [Example 265, 1-(1-(2-Amino-4-pyrimidinyl)-2,3-dihydro-1H-indol-6-yl)-3-methyl-1-pentyn-3-ol]: less than 1000 nM; for `Cc1cc([C@@](C)(O)C#Cc2ccc3c(c2)N(c2nc(N)ncc2Cl)CC32CCOCC2)on1` (single isomer, unassigned) [Example 30]: less than 1000 nM; for `CC(O)(C#Cc1ccc2c(c1)N(c1ncncn1)CC2(C)C)c1nccs1` (centres unmarked) [Example 38, 4-(3,3-dimethyl-1-(1,3,5-triazin-2-yl)-2,3-dihydro-1H-indol-6-yl)-2-(1,3-thiazol-2-yl)-3-butyn-2-ol]: less than 1000 nM.

For the compound `COCCn1cc(-c2nc(N)ncc2Cl)c2cc(C#CC3(O)CCCC3)ccc21` [Example 125, 1-(2-(3-(2-amino-5-chloropyrimidin-4-yl)-1-(2-methoxyethyl)-1H-indol-5-yl)ethynyl)cyclopentanol], the Ki is less than 1000 nM.

As to `Cn1cncc1C(O)C#Cc1ccc2c(c1)N(c1nc(N)ncc1Cl)CC2(C)C` (single isomer, unassigned) [Example 42, (1R*)-3-(1-(2-amino-5-chloro-4-pyrimidinyl)-3,3-dimethyl-2,3-dihydro-1H-indol-6-yl)-1-(1-methyl-1H-imidazol-5-yl)-2-propyn-1-ol], the Ki lay within 1000 to 30000 nM.

Turning to `C[C@@](O)(C#Cc1ccc2c(c1)N(c1ncncc1Cl)CC21CCOCC1)c1nccs1` [Example 32, (2R)-4-[1-(5-chloropyrimidin-4-yl)-1,2,2′,3′,5′,6′-hexahydrospiro[indole-3,4′-pyran]-6-yl]-2-(1,3-thiazol-2-yl)but-3-yn-2-ol], the Ki was less than 1000 nM.

Take `COCCOc1ccc(C#C[C@](C)(O)c2cc(C)on2)cc1Nc1nc(N)ncc1Cl` (single isomer, unassigned) [Example 178]: the Ki fell in the range of 1000 to 30000 nM. The same measure for `COc1ccc(C#C[C@@](C)(O)c2nccs2)cc1Nc1nc(N)ncc1Cl` [Example 146, (R)-4-(3-(2-Amino-5-chloropyrimidin-4-ylamino)-4-methoxyphenyl)-2-(thiazol-2-yl)but-3-yn-2-ol]: less than 1000 nM; for `Nc1ncc(F)c(-c2cn(CC3CCOC3)c3ccc(C#CC4(O)CCCC4)cc23)n1` (centres unmarked) [Example 135, 1-(2-(3-(2-amino-5-fluoropyrimidin-4-yl)-1-((tetrahydrofuran-3-yl)methyl)-1H-indol-5-yl)ethynyl)cyclopentanol]: less than 1000 nM. Then `CC(O)(C#Cc1ccc2c(c1)N(c1nc(N)ncc1Cl)CC2)c1nc(C#N)cs1` (centres unmarked) [Example 9, 2-(4-(1-(2-amino-5-chloropyrimidin-4-yl)indolin-6-yl)-2-hydroxybut-3-yn-2-yl)thiazole-4-carbonitrile], with 1000 to 30000 nM; and `Cc1ncc2c(n1)-c1c([nH]c3ccc(C#CC(C)(C)O)cc13)CCC2` [Example 242, 2-Methyl-4-(2-methyl-5,6,7,8-tetrahydropyrimido[4′,′:3,4]cyclohepta[1,2-b]indol-1′-yl)-3-butyn-2-ol], with 1000 to 30000 nM; and `CN1CC2(C1)CN(c1nc(N)ncc1Cl)c1cc(C#CC3(O)CCCC3)ccc12` [Example 180, 1-((1′-(2-amino-5-chloropyrimidin-4-yl)-1-methylspiro[azetidine-3,3′-indoline]-6′-yl)ethynyl)cyclopentanol], with less than 1000 nM. In the case of `CC(O)(C#Cc1ccc2c(c1)N(c1ccncc1)CC2(C)C)c1ccccn1` (centres unmarked) [Example 310, 4-(3,3-Dimethyl-1-(4-pyridinyl)-2,3-dihydro-1H-indol-6-yl)-2-(2-pyridinyl)-3-butyn-2-ol], the Ki is less than 1000 nM. The same measure for `CC1(CO)CN(c2nc(N)ncc2F)c2cc(C#CC3(O)CCCC3)ccc21` (centres unmarked) [Example 66, 1-((1-(2-amino-5-fluoro-4-pyrimidinyl)-3-(hydroxymethyl)-3-methyl-2,3-dihydro-1H-indol-6-yl)ethynyl)cyclopentanol]: less than 1000 nM; for `CN1CCC2(C1)CN(c1nc(N)ncc1Cl)c1cc(C#CC3(O)CCCC3)ccc12` (single isomer, unassigned) [Example 192, 1-(((3S*)-1-(2-Amino-5-chloro-4-pyrimidinyl)-1′-methyl-1,2-dihydrospiro[indole-3,3′-pyrrolidin]-6-yl)ethynyl)cyclopentanol]: less than 1000 nM; for `CC(O)(C#Cc1ccc2c(c1)N(c1ccnc(N)n1)CC2)c1ccccc1` (centres unmarked) [Example 267, 4-(1-(2-Amino-4-pyrimidinyl)-2,3-dihydro-1H-indol-6-yl)-2-phenyl-3-butyn-2-ol]: less than 1000 nM. Then `Nc1ncc(F)c(N2CCc3ccc(C#CC4(O)CCCC4)cc32)n1` [Example 68, 1-((1-(2-amino-5-fluoro-4-pyrimidinyl)-2,3-dihydro-1H-indol-6-yl)ethynyl)cyclopentanol], with less than 1000 nM; and `CC(O)(C#Cc1ccc2c(c1)N(c1ccnc(N)n1)CC2)c1ccn[nH]1` (centres unmarked) [Example 77, 4-(1-(2-Amino-4-pyrimidinyl)-2,3-dihydro-1H-indol-6-yl)-2-(1H-pyrazol-5-yl)-3-butyn-2-ol], with less than 1000 nM; and `CC(C)C(=O)n1cc(-c2nc(N)ncc2Cl)c2cc(C#CC3(O)CCCC3)ccc21` [Example 119, 1-(3-(2-amino-5-chloropyrimidin-4-yl)-5-(2-(1-hydroxycyclopentyl)ethynyl)-1H-indol-1-yl)-2-methylpropan-1-one], with less than 1000 nM. On to `CC(O)(C#Cc1ccc2c(c1)N(c1nc(N)ncc1Cl)CC2(C)C)C(=O)N1CCCC1` (centres unmarked) [Example 50, 4-(1-(2-amino-5-chloro-4-pyrimidinyl)-3,3-dimethyl-2,3-dihydro-1H-indol-6-yl)-2-methyl-1-oxo-1-(1-pyrrolidinyl)-3-butyn-2-ol], for which the Ki was less than 1000 nM. The same measure for `COCCOc1cnc(N)nc1-c1c[nH]c2ccc(C#CC3(O)CCC3)cc12` [Example 225, 1-((3-(2-Amino-5-(2-methoxyethoxy)-4-pyrimidinyl)-1H-indol-5-yl)ethynyl)cyclobutanol]: less than 1000 nM; for `CC(O)(C#Cc1ccc2c(c1)N(c1ncncc1Cl)CC2(C)C)c1nccs1` (centres unmarked) [Example 312, 4-(1-(5-chloro-4-pyrimidinyl)-3,3-dimethyl-2,3-dihydro-1H-indol-6-yl)-2-(1,3-thiazol-2-yl)-3-butyn-2-ol]: less than 1000 nM; for `COCCN(C)c1ccc(C#CC(C)(O)c2cc(C)on2)cc1Nc1nc(N)ncc1Cl` (centres unmarked) [Example 151, 4-(3-(2-Amino-5-chloropyrimidin-4-ylamino)-4-((2-methoxyethyl)(methyl)amino)phenyl)-2-(5-methylisoxazol-3-yl)but-3-yn-2-ol]: less than 1000 nM. Turning to `CC(O)(C#Cc1ccc(OC2CCOCC2)c(Nc2ncncc2Cl)c1)c1nccs1` (centres unmarked) [Example 171, 4-(3-(5-Chloropyrimidin-4-ylamino)-4-(tetrahydro-2H-pyran-4-yloxy)phenyl)-2-(thiazol-2-yl)but-3-yn-2-ol], the Ki was less than 1000 nM. Then `Cn1cnc(C(C)(O)C#Cc2ccc3c(c2)N(c2nc(N)ncc2Cl)CC3(C)C)c1` (centres unmarked) [Example 45, 4-(1-(2-amino-5-chloro-4-pyrimidinyl)-3,3-dimethyl-2,3-dihydro-1H-indol-6-yl)-2-(1-methyl-1H-imidazol-4-yl)-3-butyn-2-ol], with less than 1000 nM.
